Measured values from US7396850B2, “Pyrazole derivative as PPAR modulator” (Eli Lilly and Company, priority 2003, dated 2008).

Experiments:
[1] = molecular target: T1, PPARα (Homo sapiens, UniProt Q07869); assay: PPAR cotransfection (transactivation) assay in CV-1 cells, GAL4 chimeric system; type: cell-based
T1 sequence (Q07869 201-468 limits assumed): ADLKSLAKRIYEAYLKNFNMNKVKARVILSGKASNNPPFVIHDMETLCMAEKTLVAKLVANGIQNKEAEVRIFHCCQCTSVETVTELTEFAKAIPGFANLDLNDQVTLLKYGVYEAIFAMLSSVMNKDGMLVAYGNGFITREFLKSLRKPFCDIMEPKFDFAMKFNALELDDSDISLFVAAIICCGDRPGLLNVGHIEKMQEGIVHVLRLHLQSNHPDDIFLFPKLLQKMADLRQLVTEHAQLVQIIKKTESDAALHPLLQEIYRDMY
Description: (§1) DNA-dependent binding is carried out using SPA technology with PPAR receptors. Tritium-labeled PPARα agonists are used as radioligands for generating displacement curves and IC50 values with compounds of the invention. Cotransfection assays are carried out in CV-1 cells. The reporter plasmid contained an acylCoA oxidase (AOX) PPRE and TK promoter upstream of the luciferase reporter cDNA. Appropriate PPARs are constitutively expressed using plasmids containing the CMV promoter. For PPARα, interference by endogenous PPARγ in CV-1 cells is an issue. In order to eliminate such interference, a GAL4 chimeric system is used in which the DNA binding domain of the transfected PPAR is replaced by that of GAL4, and the GAL4 response element is utilized in place of the AOX PPRE. Cotransfection efficacy is determined relative to PPAR agonist reference molecules. Efficacies are determined by computer fit to a concentration-response curve, or in some cases at a single high concentration of agonist (10 μM).
(§2) These studies are carried out to evaluate the ability of compounds of the invention to bind to and/or activate various nuclear transcription factors, particularly huPPARδ (“hu” indicates “human”). These studies provide in vitro data concerning efficacy and selectivity of compounds of the invention.

[2] = molecular target: T2, PPARγ (Homo sapiens, UniProt P37231); assay: PPAR cotransfection (transactivation) assay in CV-1 cells; type: cell-based
T2 construct: expressed in transfected cells; host or cells: CV-1 cells
T2 sequence (P37231 1-505): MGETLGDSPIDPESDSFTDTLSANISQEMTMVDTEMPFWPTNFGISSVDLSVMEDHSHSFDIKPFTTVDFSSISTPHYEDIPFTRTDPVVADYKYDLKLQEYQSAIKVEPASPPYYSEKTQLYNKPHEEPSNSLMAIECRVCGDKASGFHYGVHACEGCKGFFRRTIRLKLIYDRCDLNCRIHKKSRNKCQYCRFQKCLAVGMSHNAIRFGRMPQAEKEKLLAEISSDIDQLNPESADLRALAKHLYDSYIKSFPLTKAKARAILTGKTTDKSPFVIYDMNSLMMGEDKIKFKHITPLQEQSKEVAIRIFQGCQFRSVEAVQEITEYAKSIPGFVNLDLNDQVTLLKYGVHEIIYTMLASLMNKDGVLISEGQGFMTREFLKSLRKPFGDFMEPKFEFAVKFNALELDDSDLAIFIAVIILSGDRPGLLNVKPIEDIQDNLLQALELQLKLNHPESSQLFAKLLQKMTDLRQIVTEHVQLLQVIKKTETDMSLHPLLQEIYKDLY
Description: as §1, §2

[3] = molecular target: T3, PPARδ (Homo sapiens, UniProt Q03181); assay: as above; type: cell-based
T3 construct: expressed in transfected cells; host or cells: CV-1 cells
T3 sequence (Q03181 1-441): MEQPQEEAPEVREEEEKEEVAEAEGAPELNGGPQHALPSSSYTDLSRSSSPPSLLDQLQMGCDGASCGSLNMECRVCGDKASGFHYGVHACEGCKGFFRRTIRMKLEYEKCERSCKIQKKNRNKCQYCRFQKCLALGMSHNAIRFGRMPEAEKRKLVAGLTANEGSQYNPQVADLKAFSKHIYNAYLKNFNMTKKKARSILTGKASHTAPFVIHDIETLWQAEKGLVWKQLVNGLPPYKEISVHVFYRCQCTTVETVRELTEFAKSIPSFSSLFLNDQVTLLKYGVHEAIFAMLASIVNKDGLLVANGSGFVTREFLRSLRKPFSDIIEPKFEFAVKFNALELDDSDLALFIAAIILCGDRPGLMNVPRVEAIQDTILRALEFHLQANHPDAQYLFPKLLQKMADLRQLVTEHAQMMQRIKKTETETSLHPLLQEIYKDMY
Description: as §1, §2

[4] = system: obese, non-diabetic rhesus monkeys; assay: Dyslipidemic rhesus monkey model, oral dose-escalation study for 28 days; type: in vivo
Description: The compound of Formula 1 was examined in a dyslipidemic rhesus monkey model. […] HDL cholesterol increased by more than 40% in the 3.0 mg/kg b.i.d. dose group. LDL cholesterol decreased by approximately 25% in the 9.0 mg/kg b.i.d dose group, and a dose-related effect on triglycerides yielded a maximum 53% reduction in the 9.0 mg/k.g b.i.d dose group.

EC50 [1]: 1800 nM | EC50 [2]: 2600 nM | EC50 [3]: 20 nM
Structure (SMILES): Cc1cc(SCc2cn(-c3ccc(C(F)(F)F)cc3)nc2C)ccc1OCC(=O)O [Formula 1, {2-Methyl-4-[3-methyl-1-(4-trifluoromethyl-phenyl)-1H-pyrazol-4-ylmethylsulfanyl]-phenoxy}-acetic acid]
C-reactive protein levels ([4]; compared to pretreatment levels): reduced compared to pretreatment levels | HDL-c change ([4]; oral dose-escalation, 28 days, each dose): elevation of HDL-c with each dose | HDL cholesterol increase ([4]; oral, 3.0 mg/kg b.i.d. dose group): more than 40% | LDL cholesterol decrease ([4]; oral, 9.0 mg/kg b.i.d. dose group): approximately 25% | triglycerides maximum reduction ([4]; oral, 9.0 mg/kg b.i.d. dose group, dose-related effect): 53%
